The values that follow come from ChEMBL document CHEMBL1201862, “PubChem BioAssay data set” (2004).

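Growth conditions: 96-well plates. Treatment: test compound, 48 hours, 5 concentrations. Analysis: linear interpolation between bracketing concentrations; unreached endpoints set to highest concentration. GI50 marks 50% less growth.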 Activity calls are given as the source filed them. Rule as the data show it: active = GI50 up to about 1.1 µM and inactive = higher.

Among the test systems are HOP-92; TK-10; SF-268; RPMI-8226; SNB-19; MCF7; UACC-62; SK-MEL-5; NCI-H522; HCT-15; COLO 205; OVCAR-8; SF-295; EKVX; 786-0; T47D; A549; PC-3; SN12C; HL-60.
What all share (experiment): NCI-60 cell line screen, 48 h

In the case of `CC(C)(C)OC(=O)NCCC1CN(C(=O)c2ccccc2)c2ccccc21` (configuration not stated), the GI50 with HOP-92 is 26.5 µM (inactive); with TK-10, 56.2 µM (inactive); in the test with SF-268 it was 41.3 µM (inactive); with RPMI-8226, 19.7 µM (inactive); in the test on SNB-19, 32 µM (inactive); in the test on MCF7, 28.2 µM (inactive). The GI50 was 19 µM (inactive) with UACC-62; 16.4 µM (inactive) in the test on SK-MEL-5; 22.6 µM (inactive) in the test with NCI-H522; 29.9 µM with HCT-15; 19.7 µM (inactive) in the test on COLO 205; 25.6 µM (inactive) with OVCAR-8. For the same compound, the GI50 in the test on SF-295 is 29.4 µM (inactive); with EKVX, 25.6 µM (inactive); in the test on 786-0, 35.3 µM (inactive); in the test with T47D it was 25.2 µM (inactive); in the test on A549, 25.3 µM (inactive); in the test on PC-3 it was 31.8 µM (inactive).
For `O=C(NC(=O)c1cc(-c2ccccc2)n[nH]1)c1ccccc1`, the GI50 in the test with HOP-92, in the test on TK-10, in the test with SF-268, with MCF7, in the test with UACC-62 and in the test with SK-MEL-5 was > 100 µM (inactive) throughout. Also, the GI50 in the test with NCI-H522 is 70.8 µM (inactive); in the test on HCT-15, over 100 µM; in the test on COLO 205 it was > 100 µM (inactive); in the test with SN12C it was > 100 µM (inactive); in the test with OVCAR-8, > 100 µM (inactive); in the test on SF-295 it was > 100 µM (inactive). The GI50 in the test with EKVX, in the test on 786-0, in the test on T47D, in the test on A549 and with PC-3 was > 100 µM (inactive) each time.
As to `CCOC(=O)c1c(-c2ccc(Cl)cc2)c(C#N)c(=S)n(C2OC(COC(C)=O)C(OC(C)=O)C(OC(C)=O)C2OC(C)=O)c1-c1ccccc1` (configuration not stated), the GI50 in the test on HOP-92 is 12.7 µM (inactive); in the test with TK-10 it was > 100 µM (inactive); in the test on SF-268 it was > 100 µM (inactive); with RPMI-8226 it was > 100 µM (inactive); in the test with SNB-19, > 100 µM (inactive); in the test on MCF7, > 100 µM (inactive). The GI50 with UACC-62 is > 100 µM (inactive); in the test on SK-MEL-5, 28 µM (inactive); with HCT-15, over 100 µM; with COLO 205, > 100 µM (inactive); in the test with SN12C it was > 100 µM (inactive); with SF-295, > 100 µM (inactive). The GI50 with 786-0, with T47D, in the test with HL-60, in the test on A549 and in the test on PC-3 was > 100 µM (inactive) in each case.
As for `CCCn1c2c(c3ccccc3c1=O)C(=O)c1ccccc1-2`, the GI50 was > 57.4 µM (inactive) in the test with HOP-92; 61.8 µM (inactive) in the test on TK-10; > 73.1 µM (inactive) with SF-268; > 28.8 µM (inactive) with RPMI-8226; > 100 µM (inactive) in the test with SNB-19; > 42.4 µM (inactive) in the test on MCF7. Besides, the GI50 in the test on UACC-62 was > 100 µM (inactive); in the test with SK-MEL-5, 11.2 µM (inactive); in the test with NCI-H522, 2.37 µM (inactive); in the test on COLO 205, > 54.6 µM (inactive); with SN12C, > 62.4 µM (inactive); in the test on OVCAR-8, 61.1 µM (inactive). In addition, the GI50 was > 80.5 µM (inactive) with SF-295; > 76.7 µM (inactive) with EKVX; 16.4 µM (inactive) in the test with 786-0; > 54.1 µM (inactive) in the test with T47D; 1.78 µM (inactive) in the test on HL-60; 36.4 µM (inactive) in the test on A549. The GI50 in the test with PC-3 is > 100 µM (inactive).
As to `CO/C(N)=C(C#N)/N=C/c1cccs1`, the GI50 with HOP-92 is > 100 µM (inactive); in the test with TK-10, > 100 µM (inactive); in the test with SF-268, > 100 µM (inactive); in the test on SNB-19, > 100 µM (inactive); in the test with MCF7 it was 24.4 µM (inactive); in the test with UACC-62, 35.5 µM (inactive). For the same compound, the GI50 in the test with SK-MEL-5 was 39.4 µM (inactive); with NCI-H522, 18.4 µM (inactive); in the test on HCT-15 it was 45.7 µM; in the test on COLO 205, 36.6 µM (inactive); in the test on SN12C, > 100 µM (inactive); in the test with OVCAR-8, > 100 µM (inactive). For the same compound, the GI50 in the test with SF-295 is > 100 µM (inactive); with EKVX, 42.4 µM (inactive); with 786-0, > 100 µM (inactive); in the test with T47D it was 76.6 µM (inactive); in the test with HL-60, 22 µM (inactive); in the test on A549 it was > 100 µM (inactive). In addition, in the test on PC-3, the GI50 was > 100 µM (inactive).
For `CC(=O)Nc1ccc2c(c1)nc1c3ccccc3ccn21`, the GI50 in the test with HOP-92, with TK-10, in the test with SF-268, in the test on SNB-19, with MCF7 and in the test with UACC-62 was > 100 µM (inactive) each time. Further, the GI50 in the test on SK-MEL-5 is > 100 µM (inactive); in the test on NCI-H522, > 100 µM (inactive); in the test on HCT-15, over 100 µM; in the test on COLO 205, > 100 µM (inactive); in the test on SN12C, > 100 µM (inactive); in the test with OVCAR-8, > 100 µM (inactive). Further, the GI50 in the test with SF-295 was 85.9 µM (inactive); with EKVX it was > 100 µM (inactive); in the test on 786-0, > 100 µM (inactive); in the test on T47D, > 100 µM (inactive); with HL-60 it was > 100 µM (inactive); with A549, > 100 µM (inactive). Moreover, the GI50 in the test on PC-3 was > 100 µM (inactive).
Regarding `COc1nc(-c2c[nH]c3ccccc23)cnc1N`, the GI50 was 0.0306 µM (active) with HOP-92; > 100 µM (inactive) in the test on TK-10; 23.6 µM (inactive) with SF-268; 1.01 µM (active) in the test with RPMI-8226; 66.4 µM (inactive) in the test on SNB-19; 2.85 µM (inactive) in the test with MCF7. Besides, the GI50 is 16.4 µM (inactive) with UACC-62; 37.9 µM (inactive) with SK-MEL-5; 22.8 µM in the test with HCT-15; 29 µM (inactive) in the test on COLO 205; 5.87 µM (inactive) in the test with SN12C; 31.5 µM (inactive) in the test with OVCAR-8. The GI50 in the test with SF-295 was 29.4 µM (inactive); in the test on EKVX, 6.35 µM (inactive); in the test with 786-0, 15.6 µM (inactive); in the test on T47D, 1.56 µM (inactive); in the test on HL-60 it was 4.85 µM (inactive); in the test on A549, 31.2 µM (inactive). The GI50 in the test with PC-3 was 26.5 µM (inactive).
With `CN(C)c1nc(NC23CC4CC(CC(C4)C2)C3)nc(N(C)C)n1`, the GI50 with HOP-92 was 10.6 µM (inactive); with TK-10 it was 35.6 µM (inactive); in the test on SF-268, > 42.1 µM (inactive); in the test on RPMI-8226, 3.58 µM (inactive); in the test with SNB-19 it was 14.9 µM (inactive); with MCF7, 8.15 µM (inactive). For the same compound, the GI50 with UACC-62 was 25.8 µM (inactive); in the test on SK-MEL-5, 11.1 µM (inactive); in the test on HCT-15, 5.15 µM; with COLO 205, 11.7 µM (inactive); in the test on SN12C it was 27.2 µM (inactive); in the test on OVCAR-8, > 53.3 µM (inactive). Besides, the GI50 in the test on SF-295 is 6.28 µM (inactive); with EKVX, 11.3 µM (inactive); in the test on 786-0, 15.7 µM (inactive); with T47D it was 7.29 µM (inactive); in the test with HL-60 it was 3.61 µM (inactive); with A549, 8.59 µM (inactive). The GI50 in the test with PC-3 was 8.32 µM (inactive).
